Experimental data from PubChem BioAssay (NCI).
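48-hour exposure; five concentrations; linearly interpolated endpoints. TGI denotes the concentration required for complete inhibition of growth.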

Columns and labels:
Experiment in all cases: NCI-60 cell line screen, 48 h
[1] = system: 786-0 renal
[2] = system: A498 renal
[3] = system: A549 NSCLC
[4] = system: ACHN renal
[5] = system: BT-549 breast
[6] = system: CCRF-CEM leukemia
[7] = system: COLO 205 colon
[8] = system: DLD-1 colon
[9] = system: DMS 273 small cell lung
[10] = system: DU-145 prostate
[11] = system: EKVX NSCLC
[12] = system: HCC-2998 colon
[13] = system: HCT-116 colon
[14] = system: HCT-15 colon
[15] = system: HL-60(TB) leukemia
[16] = system: HOP-18 NSCLC
[17] = system: HOP-62 NSCLC
[18] = system: HOP-92 NSCLC
[19] = system: HS 578T breast
[20] = system: HT29 colon
[21] = system: IGROV1 ovarian
[22] = system: K-562 leukemia
[23] = system: KM12 colon
[24] = system: KM20L2 colon
[25] = system: LOX IMVI melanoma
[26] = system: LXFL 529 NSCLC
[27] = system: M14 melanoma
[28] = system: M19-MEL melanoma
[29] = system: MALME-3M melanoma
[30] = system: MCF7 breast
[31] = system: MDA-MB-231 breast
[32] = system: MDA-N
[33] = system: MOLT-4 leukemia
[34] = system: NCI-H226 lung
[35] = system: NCI-H23 lung
[36] = system: NCI-H460 lung
[37] = system: NCI-H522 lung
[38] = system: OVCAR-3 ovarian
[39] = system: OVCAR-4 ovarian
[40] = system: OVCAR-5 ovarian
[41] = system: OVCAR-8 ovarian
[42] = system: PC-3 prostate
[43] = system: RPMI-8226 leukemia
[44] = system: RXF 393 renal
[45] = system: SF-268 CNS
[46] = system: SF-295 CNS
[47] = system: SF-539 CNS
[48] = system: SK-MEL-2 melanoma
[49] = system: SK-MEL-28 melanoma
[50] = system: SK-MEL-5 melanoma
[51] = system: SK-OV-3 ovarian
[52] = system: SN12C renal
[53] = system: SNB-19 CNS
[54] = system: SNB-75 CNS
[55] = system: SNB-78 CNS
[56] = system: SR leukemia
[57] = system: SW-620 colon
[58] = system: T-47D breast
[59] = system: TK-10 renal
[60] = system: U251 CNS
[61] = system: UACC-257 melanoma
[62] = system: UACC-62 melanoma
[63] = system: UO-31 renal
[64] = system: CAKI-1 renal
[65] = system: DMS 114 small cell lung
[66] = system: MDA-MB-435
[67] = system: NCI/ADR-RES ovarian

Q: What does the source list for `COc1ccc(OC(=O)N2C/C(=C\c3ccccc3)C(=O)/C(=C/c3ccccc3)C2)cc1`?
A: TGI [1]: 7.96 µM; TGI [2]: 10.6 µM; TGI [3]: 38.9 µM; TGI [4]: 14.4 µM; TGI [5]: 4.67 µM; TGI [6]: 6.73 µM; TGI [7]: 15.7 µM; TGI [8]: 5.29 µM; TGI [9]: 6.28 µM; TGI [10]: 65.1 µM; TGI [11]: 58.3 µM; TGI [12]: 8.76 µM; TGI [13]: 1.19 µM; TGI [14]: 9.23 µM; TGI [15]: 14 µM; TGI [16]: 49.5 µM; TGI [17]: 21.4 µM; TGI [18]: 40.1 µM; TGI [19]: 7.33 µM; TGI [20]: 3.73 µM; TGI [21]: 16.3 µM; TGI [22]: 7.66 µM; TGI [23]: 4.18 µM; TGI [24]: 17 µM; TGI [25]: 3.22 µM; TGI [26]: 6.92 µM; TGI [27]: 7.97 µM; TGI [28]: 2.9 µM; TGI [29]: 27.8 µM; TGI [30]: 4.77 µM; TGI [31]: 7.83 µM; TGI [32]: 3.47 µM; TGI [33]: 8.06 µM; TGI [34]: 30.3 µM; TGI [35]: 17.1 µM; TGI [36]: 13.7 µM; TGI [37]: 5.23 µM; TGI [38]: 13.1 µM; TGI [39]: 23.5 µM; TGI [40]: 27.1 µM; TGI [41]: 7.57 µM; TGI [42]: 11.2 µM; TGI [43]: 0.172 µM; TGI [44]: 8.71 µM; TGI [45]: 15.2 µM; TGI [46]: 10.1 µM; TGI [47]: 22.5 µM; TGI [48]: 45.6 µM; TGI [49]: 4.97 µM; TGI [50]: 8.84 µM; TGI [51]: 24.9 µM; TGI [52]: 5.83 µM; TGI [53]: 16.6 µM; TGI [54]: 32.6 µM; TGI [55]: 27.3 µM; TGI [56]: 2.64 µM; TGI [57]: 2.89 µM; TGI [58]: 48.1 µM; TGI [59]: 44 µM; TGI [60]: 8.87 µM; TGI [61]: 7.71 µM; TGI [62]: 5.35 µM; TGI [63]: 23.6 µM

Q: How did the TGI [1] turn out when `O=C(O)C1=Cc2cccc3cccc(c23)C1=O` was run?
A: > 100 µM

Q: And the TGI [2]?
A: 73.5 µM

Q: What about the TGI [3] of the same compound?
A: > 100 µM

Q: And the TGI [4]?
A: > 100 µM

Q: What about the TGI [64] of the same compound?
A: > 100 µM

Q: And the TGI [6]?
A: > 100 µM

Q: And the TGI [7]?
A: > 100 µM

Q: What about the TGI [8] of the same compound?
A: > 100 µM

Q: And the TGI [65]?
A: > 100 µM

Q: And the TGI [9]?
A: > 100 µM

Q: And the TGI [11]?
A: > 100 µM

Q: And the TGI [12]?
A: > 100 µM

Q: And the TGI [13]?
A: > 100 µM

Q: What about the TGI [14] of the same compound?
A: > 100 µM

Q: And the TGI [15]?
A: > 100 µM

Q: What about the TGI [16] of the same compound?
A: > 100 µM

Q: What about the TGI [17] of the same compound?
A: > 100 µM

Q: And the TGI [20]?
A: > 100 µM

Q: What about the TGI [21] of the same compound?
A: > 100 µM

Q: And the TGI [22]?
A: > 100 µM

Q: And the TGI [23]?
A: > 100 µM

Q: And the TGI [24]?
A: > 100 µM

Q: And the TGI [25]?
A: > 100 µM

Q: And the TGI [26]?
A: > 100 µM

Q: What about the TGI [27] of the same compound?
A: > 100 µM

Q: And the TGI [28]?
A: > 100 µM

Q: And the TGI [29]?
A: > 100 µM

Q: What about the TGI [33] of the same compound?
A: > 100 µM

Q: And the TGI [34]?
A: > 100 µM

Q: What about the TGI [35] of the same compound?
A: > 100 µM

Q: And the TGI [36]?
A: > 100 µM

Q: And the TGI [37]?
A: > 100 µM

Q: And the TGI [38]?
A: > 100 µM

Q: What about the TGI [39] of the same compound?
A: > 100 µM

Q: And the TGI [40]?
A: > 100 µM

Q: What about the TGI [41] of the same compound?
A: > 100 µM

Q: And the TGI [43]?
A: > 100 µM

Q: And the TGI [44]?
A: > 100 µM

Q: What about the TGI [45] of the same compound?
A: > 100 µM

Q: And the TGI [46]?
A: > 100 µM

Q: What about the TGI [48] of the same compound?
A: > 100 µM

Q: And the TGI [49]?
A: > 100 µM

Q: What about the TGI [50] of the same compound?
A: > 100 µM

Q: What about the TGI [51] of the same compound?
A: > 100 µM

Q: What about the TGI [52] of the same compound?
A: > 100 µM

Q: What about the TGI [53] of the same compound?
A: > 100 µM

Q: And the TGI [54]?
A: > 100 µM

Q: And the TGI [56]?
A: > 100 µM

Q: And the TGI [57]?
A: > 100 µM

Q: And the TGI [59]?
A: > 100 µM

Q: What about the TGI [60] of the same compound?
A: > 100 µM

Q: And the TGI [61]?
A: > 100 µM

Q: What about the TGI [62] of the same compound?
A: > 100 µM

Q: And the TGI [63]?
A: > 100 µM

Q: For `CSC12c3cc(C)n(-c4ccc(I)cc4)c3CC(C)(C)CN1C(=O)C2Oc1ccccc1` (stereo unspecified), which TGI [1] is on record?
A: > 100 µM

Q: What about the TGI [2] of the same compound?
A: > 100 µM

Q: What about the TGI [3] of the same compound?
A: > 100 µM

Q: And the TGI [4]?
A: > 100 µM

Q: What about the TGI [5] of the same compound?
A: > 100 µM

Q: What about the TGI [64] of the same compound?
A: > 100 µM

Q: What about the TGI [6] of the same compound?
A: > 100 µM

Q: And the TGI [7]?
A: > 100 µM

Q: What about the TGI [10] of the same compound?
A: > 100 µM

Q: What about the TGI [11] of the same compound?
A: > 100 µM

Q: And the TGI [12]?
A: > 100 µM

Q: What about the TGI [13] of the same compound?
A: > 100 µM

Q: What about the TGI [14] of the same compound?
A: > 100 µM

Q: What about the TGI [15] of the same compound?
A: > 100 µM

Q: And the TGI [17]?
A: > 100 µM

Q: And the TGI [18]?
A: > 100 µM

Q: What about the TGI [19] of the same compound?
A: > 100 µM

Q: And the TGI [20]?
A: > 100 µM

Q: What about the TGI [21] of the same compound?
A: > 100 µM

Q: What about the TGI [22] of the same compound?
A: > 100 µM

Q: And the TGI [23]?
A: > 100 µM

Q: And the TGI [25]?
A: > 100 µM

Q: What about the TGI [27] of the same compound?
A: > 100 µM

Q: What about the TGI [29] of the same compound?
A: > 100 µM

Q: And the TGI [30]?
A: > 100 µM

Q: What about the TGI [31] of the same compound?
A: > 100 µM

Q: And the TGI [66]?
A: > 100 µM

Q: What about the TGI [32] of the same compound?
A: > 100 µM

Q: What about the TGI [33] of the same compound?
A: > 100 µM

Q: And the TGI [34]?
A: > 100 µM

Q: And the TGI [35]?
A: > 100 µM

Q: And the TGI [36]?
A: > 100 µM

Q: What about the TGI [37] of the same compound?
A: > 100 µM

Q: And the TGI [67]?
A: > 100 µM

Q: What about the TGI [38] of the same compound?
A: > 100 µM

Q: What about the TGI [39] of the same compound?
A: > 100 µM

Q: What about the TGI [40] of the same compound?
A: > 100 µM

Q: And the TGI [41]?
A: > 100 µM

Q: And the TGI [42]?
A: > 100 µM

Q: What about the TGI [43] of the same compound?
A: > 100 µM

Q: What about the TGI [44] of the same compound?
A: > 100 µM

Q: What about the TGI [45] of the same compound?
A: > 100 µM

Q: What about the TGI [46] of the same compound?
A: > 100 µM

Q: What about the TGI [47] of the same compound?
A: > 100 µM

Q: What about the TGI [48] of the same compound?
A: > 100 µM

Q: What about the TGI [49] of the same compound?
A: > 100 µM

Q: What about the TGI [50] of the same compound?
A: > 100 µM

Q: What about the TGI [51] of the same compound?
A: > 100 µM

Q: And the TGI [52]?
A: > 100 µM

Q: And the TGI [53]?
A: > 100 µM

Q: What about the TGI [54] of the same compound?
A: > 100 µM

Q: And the TGI [56]?
A: > 100 µM

Q: What about the TGI [57] of the same compound?
A: > 100 µM

Q: And the TGI [58]?
A: > 100 µM

Q: And the TGI [59]?
A: > 100 µM

Q: What about the TGI [60] of the same compound?
A: > 100 µM

Q: What about the TGI [61] of the same compound?
A: > 100 µM

Q: And the TGI [62]?
A: > 100 µM

Q: And the TGI [63]?
A: > 100 µM
